Reference: ChEMBL document CHEMBL1121659 (J Med Chem, 1981)
The source made the active and inactive calls. The calls are words filed in the database; no cut-off is given here.

Assays:
[1] = test system: Mus musculus; assay: Compound was evaluated for the dose required for protection against MES-induced seizures after 4 hours of intraperitoneal administration; Inactive; assay type: functional, organism-based
[2] = test system: Mus musculus; assay: Compound was evaluated for the dose required for protection against scMET-induced seizures after 4 hours of intraperitoneal administration; Inactive; assay type: functional, organism-based
[3] = test system: Mus musculus; assay: Compound was evaluated for the neuro toxicity up to 4 hours after doses of <=300 mg/kg administered intraperitoneally; No toxicity; assay type: organism-based; settings: in vivo, ip
[4] = test system: Mus musculus; assay: Compound was evaluated for the dose required for protection against MES-induced seizures after 4 hours of intraperitoneal administration; assay type: functional
[5] = test system: Mus musculus; assay: Compound was evaluated for the dose required for protection against scMET-induced seizures after 4 hours of intraperitoneal administration at the doses< = 0.77-0.90 mM/kg; Inactive; assay type: functional, organism-based
[6] = Compound was evaluated for the biliary excretion in the anesthetized rats in 6 hours after intravenous doses 1 mg/kg; assay type: ADME, organism-based; set-up: dose 1 mg/kg, route intravenous; settings: rat, bile, read-out: Excretion
[7] = Compound was evaluated for the biliary excretion in the anesthetized rats in 6 hours after intravenous doses 10 mg/kg; assay type: ADME, organism-based; set-up: dose 10 mg/kg, route intravenous; settings: rat, bile, read-out: Excretion
[8] = Compound was evaluated for the biological half-life in rat after a dose of 10 mg/kg given intravenously; assay type: ADME, organism-based; set-up: dose 10 mg/kg, route intravenous; settings: in vivo, iv
[9] = test system: Mus musculus; assay: Compound was evaluated for the dose required for protection against scMET-induced seizures after 4 hours of intraperitoneal administration; assay type: functional
[10] = test system: Mus musculus; assay: Compound was evaluated for the biological half-life in mouse after a dose of 40 mg/kg given intraperitoneally; settings: in vivo, ip

Structure (SMILES) | Activity [1] | Activity [2] | Neurotoxicity [3] | Activity [4] [mmol/kg] | Activity [5] | dose excreted at 6 h [6] [%] | dose excreted at 6 h [7] [%] | half-life [8] [min] | Activity [9] | T1/2 [10] [min]
Cc1cccc(C2(c3ccc(C(F)(F)F)cc3)NC(=O)NC2=O)c1 (configuration not stated) | inactive | inactive | No toxicity |  |  |  |  |  |  | 
O=C1NC(=O)C(c2ccccc2)(c2cccc(C(F)(F)F)c2)N1 (configuration not stated) |  |  | No toxicity | 0.31 | inactive |  |  |  |  | 
O=C1NC(=O)C(c2ccccc2)(c2ccccc2)N1 [PHENYTOIN] |  |  |  | 0.038 |  | 54 | 28 | 30 | inactive | 990
